{"source": "patent US20160115540A1", "about": "“PRODRUGS AND DRUGS” (Biogen MA Inc., priority 2013, published 2016)", "tested_on": "whole blood", "assay": "Transcriptional profiling on Affymetrix GeneChips, single dose, naïve mice: whole blood", "assay_type": "in vivo, C57BL/6 mice", "settings": "for Number of differentially expressed genes identified: Whole blood: Naïve, Single Dose", "procedure": "Treated mice were sacrificed at 2, 7, or 12 hours. Tissues (liver, spleen, kidney, jejunum, cortex, hippocampus, striatum and whole blood) were collected and analyzed by transcriptional profiling on mouse Affymetrix GeneChips. […] While the experiments were performed in mice, the human homolog of the identified murine gene transcript is included in the tables. Additional genes that were identified in the study are provided in APPENDIX A, filed herewith on even date, the contents of which are herein incorporated by reference in their entirety. Additional studies are described in the Examples, and genes identified in the studies are provided in […], and APPENDIX E filed herewith on even date, the contents of each of which are herein incorporated by reference in their entirety. […] Tissues (liver, spleen, kidney, jejunum, cortex, hippocampus, striatum and whole blood) were collected and analyzed by transcriptional profiling on mouse Affymetrix GeneChips. […] Animals were exposed to CO2 and whole blood collected via cardiac puncture. Two 100 μl aliquots of whole blood were collected in 1.5 mL microcentrifuge tubes and snap frozen in liquid nitrogen. Peripheral (liver, spleen, kidney and jejunum) and CNS brain (cerebellum, hippocampus, striatum and cortex) tissues were harvested and snap frozen in liquid nitrogen, with special care taken to collect tissues of similar size and from the same location. All samples were stored at -80° C. until RNA extraction was conducted. 50 ul of snap frozen mouse blood was re-suspended in lysis buffer with proteinase K and arrayed into deep-well plates for automated RNA extraction. RNA extractions were completed on […] (Beckman Coulter, Indianapolis, Ind.) using Agencourt RNAdvance Blood kit (Part number A35604) according to the manufacturer's specifications. RNA integrity was assessed using the HT RNA reagent kit (Part number 760410, Caliper Life Sciences, Hopkinton, Mass.) using a LabChip GX (PerkinElmer, Waltham, Mass.). RNA samples with a RQS score of >8.0 were considered high quality for downstream microarray processing. […] Two micrograms of biotin labeled […] probe were hybridized to Affymetrix GeneChip Affymetrix HT_MG-430_PM plate arrays with modified conditions as described in […] et al. Washing and staining of the hybridized arrays were completed as described in the GeneChip Expression analysis technical manual for HT plate arrays using the Genechip® Array Station (Affymetrix, Santa Clara, Calif.) with modifications as described in […] et al. The processed GeneChip® plate arrays were scanned using GeneTitan scanner (Affymetrix, Santa Clara, Calif.). Affymetrix scans were subject to quality control (QC) measures. These tests included a visual inspection of the distribution of raw signal intensities and an assessment of RNA degradation, relative log expression (RLE), and normalized unsealed standard error (NUSE). All sample scans that passed these QC metrics were included in the analysis. All CEL files were subjected to GC-content-based Robust Multi-array Average (GCRMA) normalization (version 2.20.0) (Irizarry R A, et al. Nucleic Acids Res 2003; 31:e15; Li C, et al. Genome Biol 2001; 2:[…]0032). […] Stat Appl Genet Mol Biol 2004; 3:Article3). […] Springer Science+Business Media 2005).", "key": {"[1]": {"settings": "100 mpk, vs Vehicle, 2 h after last dosing"}, "[2]": {"settings": "100 mpk, vs Vehicle, 7 h after last dosing"}, "[3]": {"settings": "100 mpk, vs Vehicle, 12 h after last dosing"}, "[4]": {"settings": "whole blood, 100DMF-vs-Veh, 2 h"}, "[5]": {"settings": "whole blood, 100DMF-vs-Veh, 12 h"}, "[6]": {"settings": "whole blood, 100MMF-vs-Veh, 12 h"}}, "note": "Structures can show the parent of a compound that is named as a salt."}
{"smiles": "COC(=O)/C=C/C(=O)OC", "note": "[DMF, dimethyl fumarate]", "values": [{"measurement": "Number of genes, DMF Only / MMF Only", "setting": "Blood", "value": 6}, {"measurement": "Cpsf2 (1420937_PM_at) differential expression", "setting": "Blood, 2 hr", "value": "−1.65"}, {"measurement": "Gzma (1417898_PM_a_at) differential expression", "setting": "Blood, 12 hr", "value": 1.92}, {"measurement": "Klrb1b (1445399_PM_at) differential expression", "setting": "Blood, 12 hr", "value": 1.65}, {"measurement": "Klrc1 (1425005_PM_at) differential expression", "setting": "Blood, 12 hr", "value": 1.85}, {"measurement": "Klre1 (1458642_PM_at) differential expression", "setting": "Blood, 12 hr", "value": 1.85}, {"measurement": "Ncr1 (1422089_PM_at) differential expression", "setting": "Blood, 12 hr", "value": 1.86}, {"measurement": "Number of differentially expressed genes identified: Whole blood", "setting": "100 mpk DMF-vs-100 mpk MMF, 2 h after last dosing", "value": 0}, {"measurement": "Number of differentially expressed genes identified: Whole blood", "setting": "100 mpk DMF-vs-100 mpk MMF, 7 h after last dosing", "value": 1}, {"measurement": "Number of differentially expressed genes identified: Whole blood", "setting": "100 mpk DMF-vs-100 mpk MMF, 12 h after last dosing", "value": 0}, {"measurement": "Number of differentially expressed genes identified: Whole blood", "setting": "[1]", "value": 2}, {"measurement": "Number of differentially expressed genes identified: Whole blood", "setting": "[2]", "value": 0}, {"measurement": "Number of differentially expressed genes identified: Whole blood", "setting": "[3]", "value": 5}, {"measurement": "differentially expressed genes", "setting": "whole blood, 100DMF-vs-100MMF, 2 h", "value": "None"}, {"measurement": "FC Lman1 (1444037_PM_at)", "setting": "whole blood, 100DMF-vs-100MMF, 7 h", "value": 1.63}, {"measurement": "differentially expressed genes", "setting": "whole blood, 100DMF-vs-100MMF, 12 h", "value": "None"}, {"measurement": "FC Cpsf2 (1420937_PM_at)", "setting": "[4]", "value": "−1.65"}, {"measurement": "FC probe 1441373_PM_at", "setting": "[4]", "value": "−1.70"}, {"measurement": "FC Gzma (1417898_PM_a_at)", "setting": "[5]", "value": 1.92}, {"measurement": "FC Klrb1b (1445399_PM_at)", "setting": "[5]", "value": 1.65}, {"measurement": "FC Klrc1 (1425005_PM_at)", "setting": "[5]", "value": 1.85}, {"measurement": "FC Klre1 (1458642_PM_at)", "setting": "[5]", "value": 1.85}, {"measurement": "FC Ncr1 (1422089_PM_at)", "setting": "[5]", "value": 1.86}, {"measurement": "differentially expressed genes", "setting": "whole blood, 100DMF-vs-Veh, 7 h", "value": "None"}]}
{"smiles": "COC(=O)/C=C/C(=O)O", "note": "[MMF, monomethyl fumarate]", "values": [{"measurement": "Number of genes, DMF Only / MMF Only", "setting": "Blood", "value": 2}, {"measurement": "Bcl3 (1418133_PM_at) differential expression", "setting": "Blood, 2 hr", "value": "−1.23"}, {"measurement": "Sdc1 (1415943_PM_at) differential expression", "setting": "Blood, 12 hr", "value": "−1.96"}, {"measurement": "Number of differentially expressed genes identified: Whole blood", "setting": "[1]", "value": 1}, {"measurement": "Number of differentially expressed genes identified: Whole blood", "setting": "[2]", "value": 0}, {"measurement": "Number of differentially expressed genes identified: Whole blood", "setting": "[3]", "value": 2}, {"measurement": "FC Bcl3 (1418133_PM_at)", "setting": "whole blood, 100MMF-vs-Veh, 2 h", "value": "−1.67"}, {"measurement": "FC 0710007G10Rik /// Tmem175 (1435109_PM_at)", "setting": "[6]", "value": "−1.52"}, {"measurement": "FC Sdc1 (1415943_PM_at)", "setting": "[6]", "value": "−1.96"}, {"measurement": "Bcl3 mRNA fold change vs vehicle", "setting": "whole blood, 2 hr after single 100 mg/kg oral dose", "value": "−1.23"}, {"measurement": "Sdc1 mRNA fold change vs vehicle", "setting": "whole blood, 12 hr after single 100 mg/kg oral dose", "value": "−1.96"}]}
